Reference: patent publication US9119769B2, “Method for transforming pharmaceutical crystal forms” (The Curators of the University of Missouri, priority 2012, dated 2015)

Experiments:
[1] = Gas-induced (pressurized CO2) phase transformation of crystal forms, followed by XRPD; assay type: physicochemical
From the text: The invention teaches that simple pressurization of polymorphic forms of an organic solid, such as a pharmaceutical agent, can effect phase transitions among the forms with ease. More specifically, the inventive method comprises the step of subjecting an organic solid to a pressurized gas under low to moderate pressure at room temperature to a mildly elevated temperature for a period of time. The pressurized gas may be CO2, N2O, and CH4, and the pressure may start at 1 atm, whereas under slightly elevated pressure, the reaction temperature may be lowered, while the reaction time may be shortened.
Refer to FIG. 3, which includes schematic illustrations of the phase transformations between different forms of Clarithromycin 1. […] As expected, desolvated form I can be transformed to form II with greater ease under analogous conditions. […] Different gases including H2, He, CH4, N2, O2, air, and N2O have been studied, among which N2O has similar transformation effect as CO2.
Refer to FIG. 5, which compares the transformations under different gas pressures (350 psi vs. 100 psi) at different durations.
The invention has also studied Lansoprazole 2 transformations under CO2 but at higher pressure conditions.

[2] = cited from earlier work
[3] = 1:1 ethanol hydrate; cited from earlier work

CC[C@H]1OC(=O)[C@H](C)[C@@H](O[C@H]2C[C@@](C)(OC)[C@@H](O)[C@H](C)O2)[C@H](C)[C@@H](O[C@@H]2O[C@H](C)C[C@H](N(C)C)[C@H]2O)[C@](C)(OC)C[C@@H](C)C(=O)[C@H](C)[C@@H](O)[C@]1(C)O [Clarithromycin form 0, 6-O-methylerythro-mycin A]
time of exposure for complete transformation directly to form II ([1]; 23.8 atm (350 psi) CO2, room temperature): 4 h

CC[C@H]1OC(=O)[C@H](C)[C@@H](O[C@H]2C[C@@](C)(OC)[C@@H](O)[C@H](C)O2)[C@H](C)[C@@H](O[C@@H]2O[C@H](C)C[C@H](N(C)C)[C@H]2O)[C@](C)(OC)C[C@@H](C)C(=O)[C@H](C)[C@@H](O)[C@]1(C)O [Clarithromycin form I, 6-O-methylerythro-mycin A]
time for transformation to form II ([1]; pressurization under 350 psi CO2): within just several minutes

CO[C@@H]1[C@@H](OC(N)=O)[C@@H](O)[C@H](Oc2ccc3c(O)c(NC(=O)c4ccc(O)c(CC=C(C)C)c4)c(=O)oc3c2C)OC1(C)C [novobiocin amorphous phase, novobiocin]
absorption upon oral administration [2]: readily absorbed

Cc1c(OCC(F)(F)F)ccnc1C[S+]([O-])c1nc2ccccc2[nH]1 (stereo not drawn) [Lansoprazole ethanol hydrate, Lansoprazole]
chemical stability of the solvate [3]: prone to decomposition | transformation of ethanol hydrate to solvent-free form ([1]; 500 psi CO2, room temperature): transformation to the more thermodynamically stable solvent-free form begins

CO[C@@H]1[C@@H](OC(N)=O)[C@@H](O)[C@H](Oc2ccc3c(O)c(NC(=O)c4ccc(O)c(CC=C(C)C)c4)c(=O)oc3c2C)OC1(C)C [novobiocin crystalline form, novobiocin]
absorption upon oral administration [2]: poorly absorbed
